Experimental data reported in US20070220627A1, “Methods and Compositions for the Selection of a Transgenic Plant” (PIONEER HI-BRED INTERNATIONAL, INC., priority 2006, published 2007).

Test system: Non-transgenic maize seed from inbred N46
Assay: Priming matrix additives: Dormex + DMSO
Assay type: in vivo
Settings: 1% DMSO without Dormex, 3 hours, 95 seed
Method: Non-transgenic maize seed from inbred N46 were primed with 0, 5, 10, 15, or 30% Dormex® solutions with and without 1% DMSO. For each treatment, 96 seeds were soaked in 50 ml of Dormexe solution in a petri dish for 3 hours at room temperature. After priming the seeds were transferred into pollination bags, and dried overnight in front of a fan. Dried primed seed were then planted into flats to germinate.

## C[S+](C)[O-] [DMSO]
  Germination %: 93%
  Seedlings: 88
